Assay: Fraction unbound in placental perfusion buffer by Rapid Equilibrium Dialysis
Format: in vitro ADME
Conditions: placenta perfusion buffer with albumin; RED 4 hours at 37 °C
Experimental: Free drug concentrations in perfusion buffer were determined using Rapid Equilibrium Dialysis (RED) single use plates (ThermoScientific, Rockford, USA) according to the manufacturer’s instructions. In short, placental perfusion buffer samples from multiple timepoints were loaded on one side of the RED and clean placenta perfusion buffer without albumin was added to the other side. This was incubated on a ThermoMixer C (Eppendorf Nederland B.V., Nijmegen, The Netherlands) at 250 rpm for 4 hours at 37 °C. The average from all measurements was taken to determine the average fraction unbound for each ex vivo placenta perfusion experiment.

Q: With `Cc1cc(=O)n(-c2ccccc2)n1C` [Antipyrine, antipyrine] as the compound, how does the Fraction unbound read?
A: 95 ± 2%
